Experimental data taken from US5905073A, “Use of 2-hydroxy-5-phenylazobenzoic acid derivatives as colon cancer chemopreventative and chemotherapeutic agents” (priority 1996, dated 1999).
Entries after “also recorded” stand apart in the source; their conditions may differ. Where two headings read alike, the source gives them in different places.

Tests used:
HT-29 cells [1] = test: Proliferation of HT-29 colon cancer cells, Coulter Counter cell count; type: cell-based, human
Experimental: (§1) Cells were grown in Dulbeccos Modified Eagle medium supplemented with 10% calf serum in an atmosphere of 5% CO2 at 37° C. For growth experiments, cells were seeded into 24-well tissue culture dishes (2 cm^2 /well) at a density of 20,000 cells/well and allowed to attach for 12 hours. The growth medium was then changed and replaced with fresh media containing the test drugs.
(§2) The test drugs were dissolved in tissue culture media at the desired concentration and added to individual wells. To determine the number of cells per well, media was removed and the cells washed with phosphate buffered saline solution. The cells were then incubated 15 minutes with trypsin-EDTA solution until detached. The detached cells were then removed from the wells and counted using a Coulter Counter (Model ZBI).
(§3) The cell numbers shown in Table I are the average of triplicate culture wells.

LS174T cells [2] = test: Proliferation of LS174T colon cancer cells, Coulter Counter cell count; type: cell-based, human
Experimental: as §1, §2, §3

HT-29 cells [3] = test: Dose response growth inhibition of HT-29 cells, Sulforhodamine B dye binding assay; type: cell-based, human; conditions: Homo sapiens
Experimental: (§4) For dose response studies a sensitive dye binding assay was adapted which allows simultaneous assay of multiple agents and doses in 96-well plates. Cells were plated and allowed to adhere for 24 hours prior to addition of the study drug. Cell densities were then determined 4 days later by fixation of the wells and staining with Sulforhodamine B dye.

LS174T cells [4] = test: Dose response growth inhibition of LS174T cells, Sulforhodamine B dye binding assay; type: cell-based, human; conditions: Homo sapiens
Experimental: as §4

LoVo cells = test: Growth inhibition of LoVo colon cancer cells; type: cell-based; conditions: Homo sapiens, Table IV, read-out: IC50 for inhibition of human colon cancer cell proliferation
Experimental: as §4

HRT-18 cells = test: Growth inhibition of HRT-18 colon cancer cells; type: cell-based; conditions: Homo sapiens; HRT-18, Table IV; read-out: IC50 for inhibition of human colon cancer cell proliferation
Experimental: as §4

[5] = test system: aberrant crypt foci induced by azoxymethane (AOM); test: Inhibition of aberrant crypt progression / multiplicity, treatment started 24 hours after second AOM injection; type: in vivo, rat
Description: Inhibition of Aberrant Crypt Progression. The data shown in FIG. 4 were collected from the distal 7-8 cm of colonic tissue. At these early time points, this area contained over 80% of the total aberrant crypt foci. An additional study was therefore designed to examine a longer time point, assess the distribution throughout the entire 25 cm of colon and determine if the drug treatment could be initiated after the second AOM injection.
In the second study, groups of 8 animals received two injections of azoxymethane one week apart. Balsalazide treatment was then initiated with one group 24 hours following the second injection. Six weeks later the animals were processed for aberrant crypt analysis. Crypts were stained in situ by rectal instillation of a 0.2% solution of methylene blue for 15 min under anesthesia. Animals were then exsanguinated, colonic tissue from the anus to the caecum was excised, cleaned and fixed for 2 hours in 2% paraformaldehyde. Crypts were counted by viewing at a magnification of 40×. In addition to collecting data on the number of foci, data was also collected on the multiplicity of aberrant crypts per foci.
Previous studies by Pretlow et al (Pretlow et al. (1992) Carcinogenesis 13:1509-1512) have reported on the relationship between aberrant crypt multiplicity and ultimate tumor development using the same carcinogenesis model. […] The data from the above experiment was analyzed to determine the effect of balsalazide on the aberrant crypt multiplicity. […] For foci with 1-3 crypts the mean inhibition ranged from 57-61% (p<0.003, Fischer exact test) while the number of foci with 4 or more crypts was reduced by a mean of 72-76% (p<0.001). When the results on the number of foci containing 4 or more crypts are compared with those containing 3 or less the difference remains statistically significant at the p<0.022 level using the Fischer exact test.

human colon cancer cells = test: Colon cancer cell proliferation in vitro, comparative statements; type: cell-based
Experimental: as §1, §2, §3
as §4, with “dye. Optical density of the stained cultures was then determined using a 96-well plate reader at 495 nm (Skehan et al. (1990) J. Natl. Cancer Inst. 82:1107-1112).” for “dye.”
Two such oxidation products, gentisic acid (Dull et al. (1987) Biochem. Pharmacol. 36:2467-2472) and 5-nitro-salicylate (Laffafian et al. (1991) Biochem. Pharmacol. 42:1869-1874) have been elucidated.

[6] = rat; cited from earlier work
[7] = cited from earlier work
ulcerative colitis = conditions: active and quiescent ulcerative colitis; cited from earlier work
[8] = 6 weeks after second AOM injection, 8 animals

For `O=C(O)CCNC(=O)c1ccc(/N=N/c2ccc(O)c(C(=O)O)c2)cc1` [Balsalazide], the “Cell No. on Day 10” value (HT-29 cells [1]; HT-29, 10 mM, average of triplicate wells) was 47500, the activity at 10000 µM (HT-29 cells [1]; Homo sapiens, HT-29, 240 h, read-out: % of Control Cells) was 3.6% and the “Cell No. on Day 10” value (LS174T cells [2]; 10 mM, average of triplicate wells) was 24925. The activity at 10000 µM (LS174T cells [2]; Homo sapiens, 240 h, read-out: % of Control Cells) was 3.51%, the IC50 (HT-29 cells [3]; HT-29, Table IV, read-out: IC50 for inhibition of human colon cancer cell proliferation) was 5.71 mM and the IC50 (HT-29 cells [3]; HT-29, text (FIG. 5), read-out: IC50) was 5.7 mM. It also gave an IC50 (LS174T cells [4]; Table IV, read-out: IC50 for inhibition of human colon cancer cell proliferation) of 5.29 mM, an IC50 (LS174T cells [4]; text (FIG. 5), read-out: IC50) of 5.2 mM and an IC50 (LoVo cells) of 5 mM. For the same molecule, the IC50 (HRT-18 cells) was 3.88 mM, the “mean number of foci, Total” value [5, 8] was 63.75 and the “mean number of foci, multiplicity 1” value [5, 8] was 10.3. For the same molecule, the “mean number of foci, multiplicity 2” value [5, 8] was 19.1, the “mean number of foci, multiplicity 3” value [5, 8] was 15.3 and the “mean number of foci, multiplicity 4” value [5, 8] was 8.5. The “mean number of foci, multiplicity 5 to 8” value [5, 8] was 9.6, the “inhibition of aberrant crypt foci overall” value ([5]; given beginning 24 hours following second AOM injection, 6 weeks) was “approximately 60%” and the “mean reduction of number of foci with 4 or more crypts” value ([5]; p<0.001) was 72-76%. The “mean inhibition of foci with 1-3 crypts” value ([5]; p<0.003, Fischer exact test) was 57-61%, the “reduction of foci with the greatest number of aberrant crypts relative to foci containing 2-3” value ([5]; rat, in vivo) was “almost twice” and the “inhibition of colon cancer cell growth (in words)” value (human colon cancer cells) was “potently inhibitory; also recorded: greater inhibitory response at lower concentrations than did 5-ASA”. For the same molecule, the “relative sensitivity of LS174T and HT-29 cells” value (human colon cancer cells; LS174T vs HT-29) was “identical between both cell types”, the maximum tolerated dose [6] was > 12,000 mg/kg/day and the “gastric or duodenal ulceration” value ([7]; human, in vivo) was “no evidence of gastric or duodenal ulceration”. For the same molecule, the gastrointestinal tolerance ([7]; human, in vivo) was “excellent gastrointestinal tolerance”, the nephrotoxicity ([7]; over 500 patients, some for as long as three years) was “no evidence of nephrotoxicity” and the “anti-inflammatory activity in ulcerative colitis patients” value (ulcerative colitis) was “possesses anti-inflammatory activity”.
